Source: patent US20060110451A1, “Formulations of [1,4]diazepino[6,7,1-IJ]quinoline derivatives” (priority 2004, published 2006)
Read-outs that look alike come from different tables or passages of the source.

Experiments:
[1] = Single ascending dose study; format: in vivo; details: single oral doses of 500 mg
[2] = Early toxicology testing in dogs; format: in vivo; details: oral suspension
Description: Enteric-coated capsules were developed which delayed the release of the drug. […] For human clinical studies, enteric-coated pellets were developed which provided advantages over enteric-coated capsules for dose flexibility and more uniform release in the intestinal tract.

[3] = Ascending multiple dose pharmacokinetics of enteric coated capsules in schizophrenic patients; format: in vivo, human; details: for Tmax / half-life / AUC(0-t) / Cmax / AUC(0-inf): plasma
Method: Ascending multiple doses of 100, 150, and 250 mg Compound A.HCl were administered as twice-daily regimen (q12h) for 10 days in cohorts of 8 schizophrenic patients (6 active and 2 placebo). Blood samples for Compound A.HCl analysis were obtained on day 1 within 2 hours of test article administration and at various time points from 0.5 to 24 hours after test article administration. On day 10, blood samples were collected up to 12 hours after dose administration. Doses were administered orally after an overnight fast of at least 10 hours on these 2 days. Trough PK samples were collected on days 6, 8, and 9 to assess whether steady-state has been reached.
FIGS. 7A and 7B show the relationship between Cmax vs. dose and AUC vs. dose, respectively.

For Cl.c1cc2c3c(c1)[C@H]1CCC[C@H]1CN3CCNC2 [Compound A.HCl, (9aR,12aS)-4,5,6,7,9,9a,10,11,12,12a-decahydrocyclopenta[c][1,4]diazepino[6,7,1-ij]quinoline hydrochloride], the “dose proportionality of exposure” value [1] was “signs of nonlinearity”, the “reaction noted in toxicology testing” value [2] was “emetic reaction” and the “relationship between dose and exposure” value ([3]; after excluding 2 outlier patients) was “approximately linear”. The “difference in Tmax or t1/2” value ([3]; at the 250 mg q12h dose level) was “no significant difference”, the “differences in pharmacokinetics between healthy subjects and schizophrenic patients” value ([3]; human, in vivo) was “No significant differences” and the Tmax ([3]; human, oral, schizophrenic patients, single and multiple dose administration, enteric-coated formulation, read-out: mean Tmax) was 4 to 5 h. It also gave a half-life ([3]; human, oral, schizophrenic patients, single dose administration, read-out: mean elimination t1/2) of 8 to 10 h, an AUC(0-t) ([3]; human, po, 100 mg, Schizophrenia patients, multiple oral doses (q12 h) 100 mg, day 10, read-out: AUCss (AUC0-12) (Geom. Mean)) of 31.2 ng·h/mL and an AUC(0-t) ([3]; human, po, 100 mg, Schizophrenia patients, multiple oral doses (q12 h) 100 mg, day 10, read-out: AUCss (AUC0-12) (Mean)) of ~33.2 ng·h/mL. For the same molecule, the Cmax ([3]; human, po, 100 mg, Schizophrenia patients, multiple oral doses (q12 h) 100 mg, day 10, read-out: Cmax (Geom. Mean)) was 3.82 ng/mL, the Cmax ([3]; human, po, 100 mg, Schizophrenia patients, multiple oral doses (q12 h) 100 mg, day 10, read-out: Cmax (Mean)) was 4 ng/mL and the Tmax ([3]; human, po, 100 mg, Schizophrenia patients, multiple oral doses (q12 h) 100 mg, day 10, read-out: Tmax (Geom. Mean)) was 4.6 h. The Tmax ([3]; human, po, 100 mg, Schizophrenia patients, multiple oral doses (q12 h) 100 mg, day 10, read-out: Tmax (Mean)) was 4.8 h, the AUC(0-inf) ([3]; human, po, 100 mg, Schizophrenia patients, single oral dose 100 mg, day 1, read-out: AUC0-∞ (Geom. Mean)) was 27.1 ng·h/mL and the AUC(0-inf) ([3]; human, po, 100 mg, Schizophrenia patients, single oral dose 100 mg, day 1, read-out: AUC0-∞ (Mean)) was 30.6 ng·h/mL. For the same molecule, the Cmax ([3]; human, po, 100 mg, Schizophrenia patients, single oral dose 100 mg, day 1, read-out: Cmax (Geom. Mean)) was 2.07 ng/mL, the Cmax ([3]; human, po, 100 mg, Schizophrenia patients, single oral dose 100 mg, day 1, read-out: Cmax (Mean)) was 2.21 ng/mL and the Tmax ([3]; human, po, 100 mg, Schizophrenia patients, single oral dose 100 mg, day 1, read-out: Tmax (Geom. Mean)) was 4.7 h. It also gave a Tmax ([3]; human, po, 100 mg, Schizophrenia patients, single oral dose 100 mg, day 1, read-out: Tmax (Mean)) of 4.8 h, a half-life ([3]; human, po, 100 mg, Schizophrenia patients, single oral dose 100 mg, day 1, read-out: t1/2 (Geom. Mean) (converted)) of 8.67 h and a half-life ([3]; human, po, 100 mg, Schizophrenia patients, single oral dose 100 mg, day 1, read-out: t1/2 (Mean) (converted)) of 8.93 h. The AUC(0-t) ([3]; human, po, 150 mg, Schizophrenia patients, multiple oral doses (q12 h) 150 mg, day 10, read-out: AUCss (AUC0-12) (Geom. Mean)) was 51.3 ng·h/mL, the AUC(0-t) ([3]; human, po, 150 mg, Schizophrenia patients, multiple oral doses (q12 h) 150 mg, day 10, read-out: AUCss (AUC0-12) (Mean)) was ~54.9 ng·h/mL and the Cmax ([3]; human, po, 150 mg, Schizophrenia patients, multiple oral doses (q12 h) 150 mg, day 10, read-out: Cmax (Geom. Mean)) was 6.67 ng/mL. It also gave a Cmax ([3]; human, po, 150 mg, Schizophrenia patients, multiple oral doses (q12 h) 150 mg, day 10, read-out: Cmax (Mean)) of 7.21 ng/mL, a Tmax ([3]; human, po, 150 mg, Schizophrenia patients, multiple oral doses (q12 h) 150 mg, day 10, read-out: Tmax (Geom. Mean)) of 4.2 h and a Tmax ([3]; human, po, 150 mg, Schizophrenia patients, multiple oral doses (q12 h) 150 mg, day 10, read-out: Tmax (Mean)) of 4.3 h. It also gave an AUC(0-inf) ([3]; human, po, 150 mg, Schizophrenia patients, single oral dose 150 mg, day 1, read-out: AUC0-∞ (Geom. Mean)) of 34 ng·h/mL, an AUC(0-inf) ([3]; human, po, 150 mg, Schizophrenia patients, single oral dose 150 mg, day 1, read-out: AUC0-∞ (Mean)) of 35.6 ng·h/mL and a Cmax ([3]; human, po, 150 mg, Schizophrenia patients, single oral dose 150 mg, day 1, read-out: Cmax (Geom. Mean)) of 3.09 ng/mL. The Cmax ([3]; human, po, 150 mg, Schizophrenia patients, single oral dose 150 mg, day 1, read-out: Cmax (Mean)) was 3.37 ng/mL, the Tmax ([3]; human, po, 150 mg, Schizophrenia patients, single oral dose 150 mg, day 1, read-out: Tmax (Geom. Mean)) was 4.2 h and the Tmax ([3]; human, po, 150 mg, Schizophrenia patients, single oral dose 150 mg, day 1, read-out: Tmax (Mean)) was 4.6 h. It also gave a half-life ([3]; human, po, 150 mg, Schizophrenia patients, single oral dose 150 mg, day 1, read-out: t1/2 (Geom. Mean) (converted)) of 9.25 h, a half-life ([3]; human, po, 150 mg, Schizophrenia patients, single oral dose 150 mg, day 1, read-out: t1/2 (Mean) (converted)) of 9.49 h and an AUC(0-t) ([3]; human, po, 250 mg, Schizophrenia patients, multiple oral doses (q12 h) 250 mg, day 10, read-out: AUCss (AUC0-12) (Geom. Mean)) of 134 ng·h/mL. It also gave an AUC(0-t) ([3]; human, po, 250 mg, Schizophrenia patients, multiple oral doses (q12 h) 250 mg, day 10, read-out: AUCss (AUC0-12) (Mean)) of ~173 ng·h/mL, a Cmax ([3]; human, po, 250 mg, Schizophrenia patients, multiple oral doses (q12 h) 250 mg, day 10, read-out: Cmax (Geom. Mean)) of 15.9 ng/mL and a Cmax ([3]; human, po, 250 mg, Schizophrenia patients, multiple oral doses (q12 h) 250 mg, day 10, read-out: Cmax (Mean)) of 20.6 ng/mL. It also gave a Tmax ([3]; human, po, 250 mg, Schizophrenia patients, multiple oral doses (q12 h) 250 mg, day 10, read-out: Tmax (Mean)) of 4.8 h, an AUC(0-inf) ([3]; human, po, 250 mg, Schizophrenia patients, single oral dose 250 mg, day 1, read-out: AUC0-∞ (Geom. Mean)) of 76.1 ng·h/mL and an AUC(0-inf) ([3]; human, po, 250 mg, Schizophrenia patients, single oral dose 250 mg, day 1, read-out: AUC0-∞ (Mean)) of 109 ng·h/mL. It also gave a Cmax ([3]; human, po, 250 mg, Schizophrenia patients, single oral dose 250 mg, day 1, read-out: Cmax (Geom. Mean)) of 5.71 ng/mL, a Cmax ([3]; human, po, 250 mg, Schizophrenia patients, single oral dose 250 mg, day 1, read-out: Cmax (Mean)) of 8.89 ng/mL and a Tmax ([3]; human, po, 250 mg, Schizophrenia patients, single oral dose 250 mg, day 1, read-out: Tmax (Geom. Mean)) of 4.7 h. It also gave a Tmax ([3]; human, po, 250 mg, Schizophrenia patients, single oral dose 250 mg, day 1, read-out: Tmax (Mean)) of 5 h, a half-life ([3]; human, po, 250 mg, Schizophrenia patients, single oral dose 250 mg, day 1, read-out: t1/2 (Geom. Mean) (converted)) of 7.74 h and a half-life ([3]; human, po, 250 mg, Schizophrenia patients, single oral dose 250 mg, day 1, read-out: t1/2 (Mean) (converted)) of 8.04 h.
